{
  "source": "patent US20250346643A1",
  "about": "“TROPOMYOSIN KINASE RECEPTOR (TRK) LIGANDS AS THERAPEUTICS TO SUPPORT LIVER REGENERATION” (Vanderbilt University, priority 2024, published 2025)",
  "key": {"CCND1": {"tested_on": "CCND1", "assay": "Western blot of CCND1 in HepG2 cell lysates", "assay_type": "cell-based, human", "method": "Human HepG2 and mouse AML12 cells were grown in 6-well plates. Cells were treated with NTF3 (20 ng/ml) purchased from STEMCELL technologies, Vancouver, Canada (cat. 78074), R&D Systems, Minneapolis, MN (267-N3), Gibco, Waltham, MA (PHC7036) and/or Loxo-195 (5-10 nM) (Selleckchem, Houston, TX; S8636) in complete growth media without L-glutamine for 2 hours. Lyophilized NTF3 was solubilized with sterile filtered PBS supplemented with 0.1% BSA, aliquoted and stored at −80° C. until use. […] HepG2 and AML12 cells were collected on ice in PBS, centrifuged for 10 sec […] cell pellet homogenized in RIPA buffer containing inhibitors (Roche, Basel, Switzerland; complete Mini proteinase inhibitor, 1×HALT phosphatase inhibitors, Thermo Scientific, Waltham, MA; cat. 78428). Cell lysates were sonicated and centrifuged for 10 min at 18,800×g. Protein concentration of supernatants were determined by Direct Detect Spectrophotometer (MilliporeSigma, Burlington, MA).\nFor immunoblot analysis, 30-50 μg of protein diluted in LSD sample buffer (Invitrogen, Waltham, MA) were analyzed per SDS-PAGE (NuPAGE™, Invitrogen, Waltham, MA) using MOPS buffer or MES buffer (Invitrogen, Waltham, MA). Gels were stained with Coomassie (Bio-Safe Coomassie G-250 Stain, Bio-Rad, Hercules, CA) and transferred onto PVDF membranes using semi-dry blotting (Trans-Blot SD, Bio-Rad, Hercules, CA). Images were visualized on an Amersham™ Imager 680 (Cytiva, Marlborough, MA). Semi-quantitative band densitometry was performed using ImageJ software (version 1.53)."}, "mTORC1": {"tested_on": "mTORC1", "assay": "Immunoblotting of HDOs for P-S6RP and P-P70S6K (mTORC1 activation)", "assay_type": "cell-based, human", "settings": "HDO, serum free and glutamine free William's E medium (FIG. 20A-C)", "method": "Human ductal organoids. The normal human liver tissue was obtained through the Cooperative Human Tissue Network (CHTN) at Vanderbilt University Medical Center. The liver was cut into very small pieces in liver digestion medium (Gibco, Waltham, MA; 17703-034). The cell suspension was filtered through a 100-μm cell strainer. The flow through was then centrifuged for 2 min at 100 g, 4° C., and the cell pellet resuspended in ice-cold DMEM (Gibco, Waltham, MA; 11885-084, supplemented by 5% FBS) and centrifuged for 2 min at 300 g. The cell pellet was gently resuspended in Matrigel® (Corning, Corning, NY; 356231) and a […] dome plated in a 24-well plate. The plate was incubated for 10-15 min at 37° C. After solidifying, complete HepatiCult™ Organoid Initiation Medium (OIM) (STEMCELL Technologies, Vancouver, Canada; 100-0384) was added. For passaging, the Matrigel dome was dissociated using TrypLE (Thermo Fisher Scientific, Waltham, MA; 12604013) and incubated at 37° C. for 5 mins. Organoids were washed by resuspending in advanced DMEM/F12 and consecutive resuspension of the organoid pellet. Organoids were resuspended at a 1:10 dilution in Matrigel® and cultured in complete HepatiCult™ Organoid Growth Medium (OGM) (STEMCELL Technologies, Vancouver, Canada; 100-0385) for organoid expansion. For hepatocytic differentiation of hepatic ductal organoids, culture medium was changed to complete HepatiCult™ Organoid Differentiation Medium (ODM) (STEMCELL Technologies, 100-0383) 4 days after passaging. Vehicle, NTF3, BDNF, HGF (20 ng/ml final concentration) or Taletrectinib (Fisher Scientific, Waltham, MA; 502030245, final concentration 10 nM) or torin2 (Fisher Scientific, Waltham, MA; s2817, final concentration 25 nM) were diluted in William's E (without L-glutamine) and added to organoids.\nImmunoblotting. HDOs and mpPHH were homogenized in RIPA buffer containing proteinase inhibitors (Roche, Basel, Switzerland; cOmplete™ Mini protease inhibitor, 2 tab/10 ml buffer) and 1×HALT phosphatase inhibitors (Thermo Fisher Scientific, Waltham, MA; catalog no. 78428). Lysates were sonicated and then centrifuged for 10 min at 18,800 g. Protein concentration of supernatants was determined by Direct Detect Spectrophotometer (MilliporeSigma, Burlington, MA). HDOs were treated with growth factors as described above. Lyophilized NTF3 was solubilized with sterile-filtered PBS supplemented with 0.1% BSA, aliquoted, and stored at −80° C. until use. […] HDOs and mpPHH were collected on ice in PBS and centrifuged for 10 s, and the cell pellet was homogenized in RIPA buffer containing inhibitors (Roche, Basel, Switzerland; cOmplete™ Mini protease inhibitor, 1×HALT phosphatase inhibitors, Thermo Fisher Scientific, Waltham, MA; catalog no. 78428). Cell lysates were sonicated and centrifuged for 10 min at 18,800 g. The protein concentration of supernatants was determined by a Direct Detect® spectrophotometer (MilliporeSigma, Burlington, MA). For immunoblot analysis, 10 to 50 μg of protein diluted in […] sample buffer (Invitrogen, Waltham, MA) were analyzed per SDS-polyacrylamide gel electrophoresis (NuPAGE™, Invitrogen, Waltham, MA) using Mops buffer or MES buffer (Invitrogen, Waltham, MA). […] Semi-quantitative band densitometry was performed using ImageJ software (version 1.53)."}},
  "data": [
    {"substance": "NTF3: neurotrophin-3, recombinant protein; HSC-derived hepatocyte mitogen, ligand of TRKA, TRKB, TRKC", "values": [
      {"measurement": "CCND1 amounts, NTF3 from three different vendors", "setting": "CCND1; HepG2 (FIG. 9K-L)", "value": "CCND1 amounts increased"},
      {"measurement": "CCND1 abundance", "setting": "CCND1; HepG2, NTF3 20 ng/ml, 2 hours (FIG. 8I-J)", "value": "increased CCND1 abundance"},
      {"measurement": "phosphorylation of P-p70S6 kinase and P-S6 ribosomal protein (S6RP)", "setting": "mTORC1", "value": "significantly increased phosphorylation"}
    ]}
  ]
}
